“Also recorded” adds a separate entry of the source.
Experiments:
[1] = tested on: C57/BL-6 bone marrow derived osteoclasts; assay: Primary osteoclast number and resorption on dentin discs; assay type: cell-based, mouse; details: 1 μM, N=8
Method: Osteoclasts were isolated from the bone marrow of the long bones of 8-week old C57/BL-6 mice and cultured for 24 hours in osteoclast basal media (MEM supplemented with 10% FBS, 2 mM L-glutamine, 1% Ab/Am). After 24 hours, 1×10^6 osteoclasts were seeded onto dentin discs in osteoclast differentiation media (basal media supplemented with 100 nM PGE2, 200 ng/ml MCSF, 3 ng/ml RANKL pH 7.3) for 24 hours before addition of 1 μM BI1347 or DMSO for 3 days (N=8). On day 5 of culture, osteoclast resorption was initiated by addition of 10 mM hydrochloric acid to acidify differentiation media to pH 7.0 for 2 days. On day 7, discs were fixed in 2.5% glutaraldehyde, tartrate resistant acid phosphatase (TRAP) stained and imaged using Axiovert Microscope at ×10 magnification to observe osteoclast resorption.
Pre-osteoclast and osteoclast numbers were counted using the automated counting method developed by Davies et al. 2021 (currently under review) using Ilastik software in Image J (Fiji, US). Resorption area on each disc was manually counted and analysed using Image J software.

[2] = tested on: primary human articular chondrocytes; assay: Primary human articular chondrocytes in chondrogenesis and IL1β OA disease model: gene expression; assay type: cell-based; details: 100 nM; for MATN3 gene expression, increase vs DMSO / SMOC2 gene expression, increase vs DMSO: N=1
Method: Articular cartilage was isolated, placed into a petri dish containing phosphate buffer saline (PBS) supplemented with 2% Ab/Am (PBS-Ab/Am) and transferred to a laminar flow hood for processing. Cartilage shavings were minced using a sterile scalpel to approximately 1 mm^3 and washed in fresh PBS-Ab/Am by centrifugation at 500×g for 10 minutes. Supernatant was removed and the cartilage pellet resuspended in 5 ml TrypLE™ (Gibco) before incubation at 37° C. for 10 minutes with gentle agitation. Dissociated cartilage fragments were pelleted and washed to remove excess TrypLE and resuspended in DMEM-complete media (DMEM/F12 (Gibco), 1% Ab/Am, 10% FBS) supplemented with 2 mg/ml Collagenase Type II and incubated overnight at 37° C. with gentle agitation. The cartilage digest was pelleted, washed and subsequently resuspended in DMEM-complete. Released cells were counted using a haematocytometer and seeded at 10,000 cells per cm^2. The cultures were incubated at 37° C., 5% CO2 in a humidified incubator for 2 days before refreshing DMEM-complete every 2 days until confluency. For differentiation experiments, primary chondrocytes were differentiated in DMEM/F12 containing 2% FBS, 1% Ab/Am, 1× Insulin-Transferrin-Selenium premix, 10 ng/ml TGFβ3 (primary chondrocyte differentiation media).
Additional experiments were carried out on primary chondrocytes (equine, canine and human) and ihMSC (TERT immortalised human mesenchymal stromal cell line) to investigate whether CDK8i protects from IL-1β induced degradation when added throughout the entirety of differentiation/IL-1β treatment. Briefly, ihMSCs were seeded at a density of 5×10^4 cells per 10 μl micromass and differentiated in ihMSC chondrogenic media (1% FBS, 1% Ab/Am, 1× Insulin-Transferrin-Selenium premix, 10 μM Y-27632, 100 nM dexamethasone, 50 μg/ml ascorbic acid, 20 ng/ml TGF-β3 (Peprotech)). Primary chondrocytes were seeded at 2.7×10^5 cells per 10 μl micromass and differentiated in primary chondrocyte differentiation media. All micromasses were differentiated for 12 days in the presence of 100 nM […] or DMSO. Some micromasses were processed for gene expression analysis/alcian blue staining on day 12, whilst others were treated with IL-β media (1% FBS, 1% Ab/Am, 10 ng/ml IL-1B) and CDK8i for 48-hours before processing for alcian blue staining/gene expression analysis on day 14 as previously described.

[3] = tested on: zebrafish embryo endochondral jaw bone; assay: Zebrafish jaw analysis of hypertrophic zones; assay type: in vivo, zebrafish (Danio rerio); details: 50 nM or 100 nM, 24 hpf to 5 dpf, vs DMSO
Method: Several bones during zebrafish (Danio rerio) craniofacial development exist via endochondral ossification, thus the developing zebrafish embryo is a useful in vivo model of chondrocyte hypertrophy (Dietrich et al. (2021) “Skeletal Biology and Disease Modeling in Zebrafish”. J Bone Miner Res, 36:436-458. https://doi.org/10.1002/jbmr.4256). Embryos at 24 hpf were cultured in the E3 water ([…], 0.17 mM KCl, 0.33 mM CaCl2, 0.33 mM MgSO4, and 0.1% Methylene Blue) in the presence of 50 nM or 100 nM MSC2530818 or DMSO control up until 5 dpf, with E3 water refreshed every 2 days. At 5 dpf embryos were fixed in 4% PFA overnight at 4° C. before washing in 70% EtOH for 10 mins followed by 50% EtOH for a further 10 mins. Specimens were then incubated in alcian blue stain (0.1% Alcian blue, 70% EtOH, 30% Glacial acetic acid) overnight with gentle agitation before 30 min washes in 100, 80, 70% EtOH and 0.1% PBST. Specimens were digested for 1 hour in enzyme solution (10 mg/ml trypsin in 30% saturated sodium tetraborate) followed by a 1-hour incubation in bleaching solution (3% hydrogen peroxide, 1% potassium hydroxide). Specimens were washed in 0.1% PBST and stored in 70% glycerol at 4° C. until imaging. Jaw sections were dissected and the number of enlarged cells within the entopterygoid/ceratohyal region were counted.

[4] = tested on: STR/Ort mouse tibial subchondral bone; assay: STR/Ort mouse 12 week study: microCT of subchondral bone; assay type: in vivo; details: 5 mg/kg oral intermittently, 12 weeks, N=3/group
Method: Following the pilot study, a larger in vivo study using the STR/Ort OA mouse model was conducted. […]
On week 12 mice were sacrificed and hind limbs were fixed in 4% PFA for 48 hours before storing in 70% EtOH. Micro computed tomography (μCT) scans were carried out on hind limbs to analyse MSC2530818 effects on bone. Samples were wrapped in plastic film before scanning to prevent drying and scanned using the Skyscan 1172F (Bruker). Whole limbs were scanned with X-ray settings 50 kV and 200 μA, using an aluminum 0.5 mm filter, 960 ms exposure time and 5 μm pixel size. Scanned images were reconstructed into tomograms using NRecon 1.7.3.1 (Bruker) using a reconstruction threshold with a minimum value of −1000 and maximum value of 9486 in Hounsfield units and repositioned using Dataviewer 1.5.4 (Bruker). Tibial subchondral bone regions were manually segmented and analysed using CTAn 1.18.4 (Bruker).

Structure (SMILES) | mature osteoclast number vs DMSO [1] | osteoclast resorptive activity, reduction vs DMSO [1] [fold] | pre-osteoclast number vs DMSO [1] | ADAMTS5 gene expression, reduction vs DMSO ([2]; OA disease model (+IL1β), p=0.053) [fold] | MATN3 gene expression, increase vs DMSO ([2]; chondrogenic (−IL1β)) [fold] | SMOC2 gene expression, increase vs DMSO ([2]; chondrogenic (−IL1β)) [fold] | MATN3 gene expression, increase vs DMSO ([2]; disease model (+IL1β)) [fold] | SMOC2 gene expression, increase vs DMSO ([2]; disease model (+IL1β)) [fold] | size of the hypertrophic region and number of enlarged/hypertrophic cells [3] | subchondral bone surface area vs DMSO [4] | subchondral bone surface density vs DMSO [4] | subchondral bone volume/total volume (BV/TV) vs DMSO [4]
CN(C)C(=O)Cn1cc(-c2ccc(-c3cncc4ccccc34)cc2)cn1 [BI1347] | no effect; also recorded: no change | 2.3 | no effect; also recorded: no change | – | – | – | – | – | – | – | – | –
Cc1n[nH]c2ncc(C(=O)N3CCC[C@H]3c3ccc(Cl)cc3)cc12 [MSC2530818] | – | – | – | 2.5 | 100 | 6 | 12 | 7 | dose dependent reduction | did not observe an alteration; also recorded: no difference | did not observe an alteration; also recorded: no difference | did not observe an alteration; also recorded: no difference

From patent US20250312320A1, “METHOD AND TREATMENT FOR OSTEOARTHRITIS AND DISEASES OF CHONDROCYTE HYPERTROPHY” (The Royal Veterinary College, priority 2022, published 2025)
